Test results from patent publication US5698411A, “Method for determining activity of enzymes in metabolically active whole cells” (priority 1995, dated 1997).
Structures can show the parent of a compound that is named as a salt. Numbered stars: 1 amine (or outer) side, 2 acyl side, 3 side chain; on linkers, the order of the positions; unused ones are H or OH. Bridge positions count the residues as written; N and C are the ends. Peptide text beside a SMILES is read from it. I, II: the chains in the order shown. Rhodamine110 = O=C1OC2(c3ccc(N[*:1])cc3Oc3cc(N[*:2])ccc32)c2ccccc21

Tests used:
Type in all cases: cell-based, human
lymphocytes = assay: aberrant enzyme activities in febrile children, lymphocytes (Table 7)
monocytes = assay: aberrant enzyme activities in febrile children, monocytes (Table 7)
granulocytes = assay: aberrant enzyme activities in febrile children, granulocytes (Table 7)

Compound | aberrant enzyme activity, LYMPHS (lymphocytes; P92 Adenitis) | aberrant enzyme activity, LYMPHS (lymphocytes; P97 Pyelonephritis) | aberrant enzyme activity, LYMPHS (lymphocytes; P103 Viral Syndrome) | aberrant enzyme activity, MONOS (monocytes; P96 Viral Syndrome) | aberrant enzyme activity, MONOS (monocytes; P97 Pyelonephritis) | aberrant enzyme activity, MONOS (monocytes; P99 Viral Syndrome) | aberrant enzyme activity, MONOS (monocytes; P102 UTI) | aberrant enzyme activity, LYMPHS (lymphocytes; P99 Viral Syndrome) | aberrant enzyme activity, LYMPHS (lymphocytes; P102 UTI) | aberrant enzyme activity, GRANS (granulocytes; P96 Viral Syndrome) | aberrant enzyme activity, GRANS (granulocytes; P102 UTI) | aberrant enzyme activity, MONOS (monocytes; P92 Adenitis) | aberrant enzyme activity, MONOS (monocytes; P103 Viral Syndrome) | aberrant enzyme activity, GRANS (granulocytes; P92 Adenitis) | aberrant enzyme activity, GRANS (granulocytes; P97 Pyelonephritis) | aberrant enzyme activity, GRANS (granulocytes; P103 Viral Syndrome) | aberrant enzyme activity, MONOS (monocytes; P89 Viral Stomatitis) | aberrant enzyme activity, GRANS (granulocytes; P89 Viral Stomatitis) | further results
C[C@H](N)C(=O)N[C@@H](C)C(=O)Nc1ccc2c(c1)Oc1cc(NC(=O)[C@H](C)NC(=O)[C@H](C)N)ccc1C21OC(=O)c2ccccc21 [AA-TFA, (H-L-Ala--Ala)2 Rho 110 .2TFA] | .smallcircle. | .smallcircle. | .smallcircle. | – | – | – | – | – | – | – | – | – | – | – | – | – | – | – | –
N=C(N)NCCC[C@H](N)C(=O)Nc1ccc2c(c1)Oc1cc(NC(=O)[C@@H](N)CCCNC(=N)N)ccc1C21OC(=O)c2ccccc21 (stereo partly drawn) [ARG, (H-L-Arg)2 Rho 110 .4TFA] | .smallcircle. | – | .smallcircle. | .smallcircle. | .smallcircle. | .smallcircle. | .smallcircle. | .smallcircle. | .smallcircle. | .smallcircle. | .smallcircle. | – | – | – | – | – | – | – | aberrant enzyme activity, MONOS (monocytes; P95 Viral Syndrome): .smallcircle.; aberrant enzyme activity, LYMPHS (lymphocytes; P95 Viral Syndrome): .smallcircle.; aberrant enzyme activity, LYMPHS (lymphocytes; P97 Pyelonephritis, listed as Arg-TFA): .smallcircle.; aberrant enzyme activity, GRANS (granulocytes; P95 Viral Syndrome): .smallcircle.
N[C@@H](CC(=O)O)C(=O)Nc1ccc2c(c1)Oc1cc(NC(=O)[C@@H](N)CC(=O)O)ccc1C21OC(=O)c2ccccc21 [ASP, (H-L-Asp)2 --Rho 110 .2TFA] | .smallcircle. | .smallcircle. | .smallcircle. | – | .smallcircle. | – | – | – | – | – | – | .smallcircle. | .smallcircle. | .smallcircle. | .smallcircle. | .smallcircle. | – | – | –
O=C1OC2(c3ccc(OC4O[C@H](CO)[C@@H](O)[C@H](O)[C@H]4O)cc3Oc3cc(OC4O[C@H](CO)[C@@H](O)[C@H](O)[C@H]4O)ccc32)c2ccccc21 (stereo partly drawn) [DGLUC, (D-glucose)2 fluorescein] | .smallcircle. | – | - (>0.25 Decrease over normal range) | – | – | – | – | – | – | – | – | - (>0.25 Decrease over normal range) | + (>0.25 Increase over normal range) | + (>0.25 Increase over normal range) | – | + (>0.25 Increase over normal range) | .smallcircle. | + (>0.25 Increase over normal range) | aberrant enzyme activity, MONOS (monocytes; P88 Enteritis): - (>0.25 Decrease over normal range); aberrant enzyme activity, LYMPHS (lymphocytes; P88 Enteritis): .smallcircle.; aberrant enzyme activity, LYMPHS (lymphocytes; P89 Viral Stomatitis): .smallcircle.; aberrant enzyme activity, GRANS (granulocytes; P88 Enteritis): .smallcircle.
CC(C)C[C@H](NC(=O)[C@@H]1CCCN1C(=O)CN)C(=O)NCC(=O)N1CCC[C@H]1C(=O)Nc1ccc2c(c1)Oc1cc(NC(=O)[C@@H]3CCCN3C(=O)CNC(=O)[C@H](CC(C)C)NC(=O)[C@@H]3CCCN3C(=O)CN)ccc1C21OC(=O)c2ccccc21 [GPLGP, (H-Gly--Pro--Leu--Gly--Pro)2 Rho 110 .2TFA] (I: H-GPLGP / II: H-GPLGP; linker I:C-II:C via Rhodamine110) | – | – | – | – | – | – | – | – | .smallcircle. | – | .smallcircle. | – | – | – | – | – | .smallcircle. | .smallcircle. | aberrant enzyme activity, LYMPHS (lymphocytes; P88 Enteritis): .smallcircle.; aberrant enzyme activity, LYMPHS (lymphocytes; P89 Viral Stomatitis): .smallcircle.; aberrant enzyme activity, GRANS (granulocytes; P88 Enteritis): .smallcircle.
C[C@H](NC(=O)[C@@H](N)CCCCN)C(=O)Nc1ccc2c(c1)Oc1cc(NC(=O)[C@H](C)NC(=O)[C@@H](N)CCCCN)ccc1C21OC(=O)c2ccccc21 [KA, (Lys-Ala)2 Rho 110] | .smallcircle. | .smallcircle. | .smallcircle. | .smallcircle. | + (>0.25 Increase over normal range) | .smallcircle. | .smallcircle. | .smallcircle. | .smallcircle. | .smallcircle. | .smallcircle. | .smallcircle. | .smallcircle. | .smallcircle. | .smallcircle. | .smallcircle. | .smallcircle. | .smallcircle. | aberrant enzyme activity, MONOS (monocytes; P88 Enteritis): .smallcircle.; aberrant enzyme activity, MONOS (monocytes; P95 Viral Syndrome): .smallcircle.; aberrant enzyme activity, MONOS (monocytes; P101 Fever -- Unknown Origin): + (>0.25 Increase over normal range); aberrant enzyme activity, LYMPHS (lymphocytes; P88 Enteritis): .smallcircle.; aberrant enzyme activity, LYMPHS (lymphocytes; P89 Viral Stomatitis): .smallcircle.; aberrant enzyme activity, LYMPHS (lymphocytes; P95 Viral Syndrome): .smallcircle.; aberrant enzyme activity, LYMPHS (lymphocytes; P96 Viral Syndrome): .smallcircle.; aberrant enzyme activity, GRANS (granulocytes; P88 Enteritis): .smallcircle.; aberrant enzyme activity, GRANS (granulocytes; P95 Viral Syndrome): .smallcircle.; aberrant enzyme activity, GRANS (granulocytes; P99 Viral Syndrome): .smallcircle.; aberrant enzyme activity, GRANS (granulocytes; P101 Fever -- Unknown Origin): + (>0.25 Increase over normal range)
CC(C)C[C@H](NC(=O)CNC(=O)[C@@H](N)CC(C)C)C(=O)NCC(=O)Nc1ccc2c(c1)Oc1cc(NC(=O)CNC(=O)[C@H](CC(C)C)NC(=O)CNC(=O)[C@@H](N)CC(C)C)ccc1C21OC(=O)c2ccccc21 [LGLG, (H-L-Leu--Gly--Leu--Gly)2 Rho 110 .2TFA] (I: H-LGLG / II: H-LGLG; linker I:C-II:C via Rhodamine110) | .smallcircle. | .smallcircle. | .smallcircle. | – | .smallcircle. | – | – | – | – | – | – | .smallcircle. | .smallcircle. | .smallcircle. | .smallcircle. | .smallcircle. | – | – | –
CC(C)C[C@H](NC(=O)[C@@H](N)CC(C)C)C(=O)N[C@@H](CCCNC(=N)N)C(=O)Nc1ccc2c(c1)Oc1cc(NC(=O)[C@H](CCCNC(=N)N)NC(=O)[C@H](CC(C)C)NC(=O)[C@@H](N)CC(C)C)ccc1C21OC(=O)c2ccccc21 (some centres unmarked) [LLR, (H-L Leu--Leu--Arg)2 Rho 110 .4TFA] | .smallcircle. | .smallcircle. | .smallcircle. | – | .smallcircle. | – | – | – | – | – | – | .smallcircle. | – | .smallcircle. | .smallcircle. | .smallcircle. | – | – | –
N[C@@H](CO)C(=O)Nc1ccc2c(c1)Oc1cc(NC(=O)[C@@H](N)CO)ccc1C21OC(=O)c2ccccc21 [SER, (H-L-Ser)2 Rho 110 .2TFA] | .smallcircle. | .smallcircle. | .smallcircle. | – | .smallcircle. | – | – | – | – | – | – | .smallcircle. | – | – | .smallcircle. | .smallcircle. | – | – | –
C[C@H](NC(=O)OCc1ccccc1)C(=O)N[C@@H](C)C(=O)Nc1ccc2c(c1)Oc1cc(NC(=O)[C@H](C)NC(=O)[C@H](C)NC(=O)OCc3ccccc3)ccc1C21OC(=O)c2ccccc21 [Z-AA, (Z-Ala--Ala)2 Rho 110] | – | – | – | .smallcircle. | .smallcircle. | .smallcircle. | .smallcircle. | .smallcircle. | .smallcircle. | .smallcircle. | .smallcircle. | – | .smallcircle. | – | .smallcircle. | .smallcircle. | – | – | aberrant enzyme activity, GRANS (granulocytes; P99 Viral Syndrome): .smallcircle.
C[C@H](NC(=O)OCc1ccccc1)C(=O)NCC(=O)Nc1ccc2c(c1)Oc1cc(NC(=O)CNC(=O)[C@H](C)NC(=O)OCc3ccccc3)ccc1C21OC(=O)c2ccccc21 [Z-AG, (Z-Ala--Gly)2 Rho 110] | – | – | .smallcircle. | .smallcircle. | .smallcircle. | .smallcircle. | .smallcircle. | .smallcircle. | .smallcircle. | .smallcircle. | .smallcircle. | – | .smallcircle. | .smallcircle. | .smallcircle. | .smallcircle. | .smallcircle. | .smallcircle. | aberrant enzyme activity, MONOS (monocytes; P95 Viral Syndrome): .smallcircle.; aberrant enzyme activity, GRANS (granulocytes; P95 Viral Syndrome): .smallcircle.; aberrant enzyme activity, GRANS (granulocytes; P99 Viral Syndrome): .smallcircle.
